# From US8906825B2, “Herbicidal compositions comprising 4-amino-3-chloro-5-fluoro-6-(4-chloro-2-fluoro-3-methoxyphenyl) pyridine-2-carboxylic acid or a derivative thereof and triazolopyrimidine sulfonamides” (Dow AgroSciences LLC, priority 2012, dated 2014)
# Legend:
# Type in all cases: in vivo
# [1] = system: CYPIR (Cyperus iria L., rice flatsedge); test: Postemergence foliar-applied herbicidal mixtures, direct seeded rice, greenhouse (Example I)
# Text: (§1) Seeds or nutlets of the desired test plant species were planted in a soil matrix prepared by mixing a loam or sandy loam soil (e.g., 28.6 percent silt, 18.8 percent clay, and 52.6 percent sand, with a pH of about 5.8 and an organic matter content of about 1.8 percent) and calcareous grit in an 80 to 20 ratio. The soil matrix was contained in plastic pots with a volume of 1 quart and a surface area of 83.6 square centimeters (cm^2). When required to ensure good germination and healthy plants, a fungicide treatment and/or other chemical or physical treatment was applied. The plants were grown for 8-22 days in a greenhouse with an approximate 14 h photoperiod which was maintained at about 29° C. during the day and about 26° C. during the night. Nutrients (Peters Excel® 15-5-15 5-Ca 2-Mg and iron chelate) were applied in the irrigation solution as needed and water was added on a regular basis. Supplemental lighting was provided with overhead metal halide 1000-Watt lamps as necessary. The plants were employed for testing when they reached the first through fourth true leaf stage.
# (§2) Treatments consisted of the acid or esters of 4-amino-3-chloro-5-fluoro-6-(4-chloro-2-fluoro-3-methoxy-phenyl)pyridine-2-carboxylic acid (Compound A), each formulated as an SC (suspension concentrate), and various herbicidal components alone and in combination. Forms of compound A were applied on an acid equivalent basis.
# (§3) Other herbicidal components were applied on an active ingredient basis and included acetolactate synthase (ALS)-inhibiting herbicides (sulfonamide chemical class) penoxsulam formulated as Grasp® SC, diclosulam formulated as Strongarm®, and cloransulam-methyl formulated as FirstRate®, flumetsulam formulated as Flumetsulam WG, and metosulam formulated as Eclipse®.
# (§4) Treatment requirements were calculated based upon the rates being tested, the concentration of active ingredient or acid equivalent in the formulation, and a 12 mL application volume at a rate of 187 L/ha.
# (§5) For treatments comprised of formulated compounds, measured amounts of compounds were placed individually in 25 mL glass vials and diluted in a volume of 1.25% (v/v) Agri-Dex® crop oil concentrated to obtain 12× stock solutions. […] Application solutions were prepared by adding an appropriate amount of each stock solution (e.g., 1 mL) and diluted to the appropriate final concentrations with the addition of 10 mL of an aqueous mixture of 1.25% (v/v) crop oil concentrate so that the final spray solutions contained 1.25+/−0.05% (v/v) crop oil concentrate.
# (§6) All stock solutions and applications solutions were visually inspected for compound compatibility prior to application. Spray solutions were applied to the plant material with an overhead Mandel track sprayer equipped with an 8002E nozzle calibrated to deliver 187 L/ha over an application area of 0.503 m^2 at a spray height of 18 to 20 inches (46 to 50 cm) above average plant canopy height. Control plants were sprayed in the same manner with the solvent blank.
# (§7) The treated plants and control plants were placed in a greenhouse as described above and watered by sub-irrigation to prevent wash-off of the test compounds. After approximately 3 weeks, the condition of the test plants as compared with that of the untreated plants was determined visually and scored on a scale of 0 to 100 percent where 0 corresponds to no injury or growth inhibition and 100 corresponds to complete kill.
# (§8) Colby's equation was used to determine the herbicidal effects expected from the mixtures (Colby, S. R. 1967. Calculation of the synergistic and antagonistic response of herbicide combinations. Weeds 15:20-22.).
# (§9) The following equation was used to calculate the expected activity of mixtures containing two active ingredients, A and B: Expected=A+B−(A×B/100)
# [2] = system: DIGSA (Digitaria sanguinalis (L.) Scop., large crabgrass); test: as above; conditions: Cloransulam-methyl 2.19 gai/ha
# Text: as §1, §2, §3, §4, §5, §6, §7, §8, §9
# [3] = system: LEFCH (Leptochloa chinensis (L.) Nees, Chinese sprangletop); test: as above
# Text: as §1, §2, §3, §4, §5, §6, §7, §8, §9
# [4] = system: CYPDI (Cyperus difformis L., smallflower umbrella sedge); test: In-water applied herbicidal mixtures, transplanted paddy rice, greenhouse (Example II)
# Procedure: (§10) Weed seeds or nutlets of the desired test plant species were planted in puddled soil (mud) prepared by mixing a shredded, non-sterilized mineral soil (50.5 percent silt, 25.5 percent clay, and 24 percent sand, with a pH of about 7.6 and an organic matter content of about 2.9 percent) and water at a 1:1 volumetric ratio. The prepared mud was dispensed in 365 mL aliquots into 16-ounce (oz.) non-perforated plastic pots with a surface area of 86.59 square centimeters (cm^2) leaving a headspace of 3 centimeters in each pot. Mud was allowed to dry overnight prior to planting or transplanting. Rice seeds were planted in Sun Gro MetroMix® 306 planting mixture, which typically has a pH of 6.0 to 6.8 and an organic matter content of about 30 percent, in plastic plug trays. Seedlings at the second or third leaf stage of growth were transplanted into 840 mL of mud contained in 32-oz. non-perforated plastic pots with a surface area of 86.59 cm^2 4 days prior to herbicide application. The paddy was created by filling the headspace of the pots with 2.5 to 3 cm of water. When required to ensure good germination and healthy plants, a fungicide treatment and/or other chemical or physical treatment was applied. The plants were grown for 4-22 days in a greenhouse with an approximate 14 h photoperiod which was maintained at about 29′C during the day and about 26° C. during the night. Nutrients were added as Osmocote® (19:6:12, N:P:K+minor nutrients) at 2 g per 16-oz. pot and 4 g per 32-oz. pot. Water was added on a regular basis to maintain the paddy flood, and supplemental lighting was provided with overhead metal halide 1000-Watt lamps as necessary. The plants were employed for testing when they reached the first through fourth true leaf stage.
# (§11) Treatments consisted of the acid or esters of 4-amino-3-chloro-5-fluoro-6-(4-chloro-2-fluoro-3-methoxy-phenyl)pyridine-2-carboxylic acid (compound A) each formulated as an SC and various herbicidal components alone and in combination. Forms of compound A were applied on an acid equivalent basis.
# (§12) Other herbicidal components were applied on an active ingredient basis and included acetolactate synthase (ALS)-inhibiting herbicides (sulfonamide chemical class) penoxsulam formulated as Grasp® SC (GF-443), diclosulam formulated as Strongarm®, and cloransulam-methyl formulated as FirstRate®.
# (§13) Treatment requirements for each compound or herbicidal component were calculated based upon the rates being tested, the concentration of active ingredient or acid equivalent in the formulation, an application volume of 2 mL per component per pot, and an application area of 86.59 cm^2 per pot.
# (§14) For formulated compounds, a measured amount was placed in an individual 100 or 200 mL glass vial and was dissolved in a volume of 1.25% (v/v) Agri-Dex® crop oil concentrate to obtain each application solution.
# (§15) Applications were made by injecting with a pipetter appropriate amounts of the application solutions, individually and sequentially, into the aqueous layer of the paddy. Control plants were treated in the same manner with the solvent blank. Applications were made so that all treated plant material received the same concentrations of acetone and crop oil concentrate.
# as §7, with “water was added as needed” for “watered by sub-irrigation”, “maintain a paddy flood.” for “prevent wash-off of the test compounds.”, “weeks” for “weeks,”
# as §8, §9
# [5] = system: ECHCG (Echinochloa crusgalli (L.) Beauv., barnyardgrass); test: as above
# Procedure: as §10, §11, §12, §13, §14, §15
# as §7, with “water was added as needed” for “watered by sub-irrigation”, “maintain a paddy flood.” for “prevent wash-off of the test compounds.”, “weeks” for “weeks,”
# as §8, §9
# [6] = system: FIMMI (Fimbristylis miliacea (L.) Vahl, globe fringerush); test: as above
# Procedure: as §10, §11, §12, §13, §14, §15
# as §7, with “water was added as needed” for “watered by sub-irrigation”, “maintain a paddy flood.” for “prevent wash-off of the test compounds.”, “weeks” for “weeks,”
# as §8, §9
# [7] = system: BRAPP (Brachiaria platyphylla (Griseb.) Nash, broadleaf signalgrass); test: Postemergence foliar-applied herbicidal mixtures, direct seeded rice, greenhouse (Example I)
# Text: as §1, §2, §3, §4, §5, §6, §7, §8, §9
# [8] = system: ECHCG (Echinochloa crusgalli (L.) Beauv., barnyardgrass); test: as above
# Text: as §1, §2, §3, §4, §5, §6, §7, §8, §9
# [9] = system: IPOHE (Ipomoea hederacea Jacq., ivyleaf morningglory); test: as above
# Text: as §1, §2, §3, §4, §5, §6, §7, §8, §9
# [10] = system: CYPRO (Cyperus rotundus L., purple nutsedge); test: In-water applied herbicidal mixtures, transplanted paddy rice, greenhouse (Example II)
# Procedure: as §10, §11, §12, §13, §14, §15
# as §7, with “water was added as needed” for “watered by sub-irrigation”, “maintain a paddy flood.” for “prevent wash-off of the test compounds.”, “weeks” for “weeks,”
# as §8, §9
# [11] = Compound A n-Butyl Ester 4.38 gae/ha
# [12] = Compound A n-Butyl Ester 8.75 gae/ha
# [13] = Compound A n-Butyl Ester 17.5 gae/ha
compound,measurement,setting,value
"CCOc1nc(F)cc2nc(S(=O)(=O)Nc3c(Cl)cccc3C(=O)OC)nn12 [Cloransulam-methyl, methyl 3-chloro-2-[[(5-ethoxy-7-fluoro[1,2,4]triazolo[1,5-c]pyrimidin-2-yl)sulfonyl]amino]benzoate, reference compound]",Visual Weed Control (%) - 20 DAA CYPIR Obs,[1]; Cloransulam-methyl 4.38 gai/ha,70%
same,Visual Weed Control (%) - 20 DAA CYPIR Obs,[1]; Cloransulam-methyl 8.75 gai/ha,85%
same,Visual Weed Control (%) - 20 DAA DIGSA Obs,[2],10%
same,Visual Weed Control (%) - 20 DAA LEFCH Obs,"[3]; Cloransulam-methyl 2.19 gai/ha, Table 7",0%
same,Visual Weed Control (%) - 20 DAA LEFCH Obs,"[3]; Cloransulam-methyl 4.38 gai/ha, Table 6",0%
same,Visual Weed Control (%) - 20 DAA LEFCH Obs,"[3]; Cloransulam-methyl 4.38 gai/ha, Table 7",0%
same,Visual Weed Control (%) - 20 DAA LEFCH Obs,"[3]; Cloransulam-methyl 8.75 gai/ha, Table 6",0%
same,Visual Weed Control (%) - 21 DAA CYPDI Obs,[4]; Cloransulam-methyl 17.5 gai/ha,40%
same,Visual Weed Control (%) - 21 DAA CYPDI Obs,[4]; Cloransulam-methyl 35 gai/ha,80%
same,Visual Weed Control (%) - 22 DAA ECHCG Obs,[5]; Cloransulam-methyl 17.5 gai/ha,50%
same,Visual Weed Control (%) - 21 DAA FIMMI Obs,"[6]; Cloransulam-methyl 17.5 gai/ha, Table 14",40%
same,Visual Weed Control (%) - 21 DAA FIMMI Obs,"[6]; Cloransulam-methyl 17.5 gai/ha, Table 15",40%
same,Visual Weed Control (%) - 21 DAA FIMMI Obs,"[6]; Cloransulam-methyl 35 gai/ha, Table 14",60%
same,Visual Weed Control (%) - 21 DAA FIMMI Obs,"[6]; Cloransulam-methyl 35 gai/ha, Table 15",60%
CCCCOC(=O)c1nc(-c2ccc(Cl)c(OC)c2F)c(F)c(N)c1Cl [Compound A n-Butyl Ester],Visual Weed Control (%) - 21 DAA BRAPP Obs,[7]; [11],0%
same,Visual Weed Control (%) - 21 DAA BRAPP Obs,[7]; [12],40%
same,Visual Weed Control (%) - 27 DAA ECHCG Obs,[8]; [11],0%
same,Visual Weed Control (%) - 27 DAA ECHCG Obs,[8]; [12],0%
same,Visual Weed Control (%) - 27 DAA ECHCG Obs,[8]; [13],90%
same,Visual Weed Control (%) - 27 DAA IPOHE Obs,[9]; [11],10%
same,Visual Weed Control (%) - 27 DAA IPOHE Obs,[9]; [12],10%
same,Visual Weed Control (%) - 27 DAA IPOHE Obs,[9]; [13],10%
"CCOc1nc(F)cc2nc(S(=O)(=O)Nc3c(Cl)cccc3Cl)nn12 [Diclosulam, N-(2,6-dichlorophenyl)-5-ethoxy-7-fluoro[1,2,4]triazolo[1,5-c]pyrimidine-2-sulfonamide, reference compound]",Visual Weed Control (%) - 20 DAA LEFCH Obs,"[3]; Diclosulam 6.62 gai/ha, Table 4",0%
same,Visual Weed Control (%) - 20 DAA LEFCH Obs,"[3]; Diclosulam 6.62 gai/ha, Table 5",0%
same,Visual Weed Control (%) - 20 DAA LEFCH Obs,"[3]; Diclosulam 13.25 gai/ha, Table 5",20%
same,Visual Weed Control (%) - 21 DAA CYPRO Obs,[10]; Diclosulam 6.62 gai/ha,80%
same,Visual Weed Control (%) - 21 DAA CYPRO Obs,[10]; Diclosulam 13.25 gai/ha,80%
same,Visual Weed Control (%) - 21 DAA ECHCG Obs,[5]; Diclosulam 6.62 gai/ha,70%
